Assay results from patent publication US10157261B2, “Transcriptome-wide design of selective, bioactive small molecules targeting RNA” (The Scripps Research Institute, priority 2013, dated 2018).

Experiments:
[1] = target: 5′UUU/3′AUA RNA (loop near the processing site of miRNA-96 precursor); assay: in solution, fluorescence-based binding affinity assay; parameters: species or system human
Protocol: (§1) Dissociation constants were determined using an in solution, fluorescence-based assay (Disney et al., J. Am. Chem. Soc. 130, 11185-11194 (2008)). The RNA of interest was folded in 1× Assay Buffer (8 mM Na2HPO4, pH 7.0, 190 mM NaCl, 1 mM EDTA and 40 μg/mL BSA) by heating at 60° C. for 5 min and slowly cooling to room temperature. A selected fluorescently labeled compound was added to a final concentration of 50 nM for compounds 1-Fl, 4-Fl, and 5-Fl or 500 nM for compound 2. Serial dilutions (1:2) were then completed in 1× Assay Buffer supplemented with 50 nM of compounds 1-Fl, 4-Fl, or 5-Fl or 500 nM of 2. The solutions were incubated for 30 min at room temperature and then transferred to a 96-well plate and fluorescence intensity measured. The change in fluorescence intensity as a function of RNA concentration was fit to the following equation (Wang & Rando, Chem. Biol. 2, 281-290. (1995)): I=I0+0.5Δε(([FL]0+[RNA]0+Kt)−(([FL]0+[RNA]0+Kt)^2−4[FL]0[RNA]0)^0.5) where I and I0 are the observed fluorescence intensity in the presence and absence of RNA respectively, Δε is the difference between the fluorescence intensity in the absence of RNA and in the presence of infinite RNA concentration, [FL]0 and [RNA]0 are the concentrations of small molecule and RNA, respectively, and Kt is the dissociation constant.
(§2) The targetable loops (motifs) were embedded into C1 (FIG. 1) so that affinity measurements could be completed. The secondary structures of the RNAs as predicted by RNAstructure (Mathews et al., Proc. Natl. Acad. Sci. U.S.A. 101, 7287-7292 (2004).) and representative binding curves are shown in (FIG. 4D-4I).

5′CGAUU/3′GGUAUA RNA = assay: as above; parameters: species or system human; settings: read-out: Dissociation constants, 5′CGAUU/3′GGUAUA
Protocol: as §1, §2

5′CGA/3′GGU RNA = assay: as above; parameters: species or system human; settings: read-out: Dissociation constants, 5′CGA/3′GGU
Protocol: as §1, §2

C1 (cassette RNA) = assay: as above; settings: read-out: Dissociation constants, C1
Protocol: as §1, with “constant. […]” for “constant.”

H Hairpin (DNA hairpin) = assay: as above; settings: read-out: Dissociation constants, H Hairpin
Protocol: as §1, with “constant. […]” for “constant.”

miR-96 = assay: qRT-PCR of mature miRNA in MCF7 cells; assay type: cell-based, human
Protocol: (§3) MCF7 cells were cultured in either 6-well or 12-well plates, and total RNA was extracted using TRIzol LS reagent (Ambion) per the manufacturer's protocol. Approximately 200 ng of total RNA was used in reverse transcription (RT) reactions, which were completed using a Taqman MicroRNA RT Kit (Applied Biosystems) or a miScript II RT kit (Qiagen) per the manufacturer's protocol. qRT-PCR was performed on a 7900HT Fast Real Time PCR System (Applied Biosystem) using Taqman Universal PCR Master Mix or power SYBR green master mix (Applied Biosystems). All primer sets for mature miRNAs were purchased from Applied Biosystems. The expression level of mature miRNAs was normalized to U6 small nuclear RNA.
(§4) Pri-, pre-, and mature miR-96 RT-PCR products were analyzed on a denaturing 10% polyacrylamide gel stained with ethidium bromide. Expression levels were normalized to GAPDH.

FOXO1 protein = assay: Western blotting; assay type: cell-based, human; settings: 50 nM, MCF7 cells
Protocol: MCF7 cells were grown in 6-well plates to ˜80% confluency in complete growth medium. […] Total protein was extracted using M-PER Mammalian Protein Extraction Reagent (Pierce Biotechnology) using the manufacturer's protocol. Extracted total protein was quantified using a Micro BCA Protein Assay Kit (Pierce Biotechnology). Approximately 40 μg of total protein was resolved on an 8% SDS-polyacrylamide gel, and then transferred to a PVDF membrane. The membrane was briefly washed with 1× Tris-buffered saline (TBS), and then blocked in 5% milk in 1×TBST (1×TBS containing 0.1% Tween-20) for 1 h at room temperature. The membrane was then incubated in 1:1000 FOXO1 primary antibodies (Cell Signaling Technology) in 1×TBST containing 3% BSA overnight at 4° C. The membrane was washed with 1×TBST and incubated with 1:2000 anti-rabbit IgG horseradish-peroxidase secondary antibody conjugate (Cell Signaling Technology) in 1×TBS for 1 h at room temperature. After washing with 1×TBST, protein expression was quantified using SuperSignal West Pico Chemiluminescent Substrate (Pierce Biotechnology) per the manufacturer's protocol. The membrane was then stripped using 1× Stripping Buffer (200 mM glycine, pH 2.2 and 0.1% SDS) followed by washing in 1×TBS. […] Image J software from the National Institutes of Health was used to quantify band intensities.

pri-miR-96 = assay: qRT-PCR of pri-miR-96 in MCF7 cells; assay type: cell-based, human
Protocol: as §4

pre-miR-96 = assay: qRT-PCR of pre-miR-96 in MCF7 cells; assay type: cell-based, human; settings: 50 nM
Protocol: as §4

[2] = test system: MCF10A (healthy breast cells); assay: Annexin V/PI assay; assay type: cell-based, human; settings: 50 nM, 72 hours
Protocol: Annexin V/PI Assays: MDA MB 231 or MCF-10A cells were grown in 6-well plates to 40-50% confluency. The cells were incubated with 50 nM of small molecule for 72 h and then detached from the surface using accutase. They were washed twice each with ice cold 1×DPBS and 1× Annexin Binding Buffer (50 mM Hepes (pH 7.4), 700 mM NaCl and 12.5 mM CaCl2). The cells were resuspended in 100 μL 1× Annexin Binding Buffer, and then 5 μL Annexin V-APC (eBioscience) were added. The solution was incubated for 10 min at room temperature followed by washing with 1× Annexin Binding Buffer. The cells were then stained with 1 μg/mL propidium iodide in 300 μL of 1× Annexin Binding Buffer for 15 min at room temperature. Flow cytometry was performed using a BD LSRII instrument (BD Biosciences). At least 10,000 events were used for analysis.

miR-210 = assay: qRT-PCR of mature miRNA; assay type: cell-based, human; settings: 500 nM, ACHN renal cancer cell line
Protocol: as §3

MCF7 cells = assay: APO BrdU TUNEL assay; assay type: cell-based, human; settings: 40 μM
Protocol: ON-TARGETplus SMARTpool FOXO1 siRNA and ONTARGETplus GAPD Control Pool were purchased from Dharmacon (Thermo Scientific) and were used at a final concentration of 100 nM. MCF7 cells were reverse transfected in a 6-well plate using Lipofectamine RNAiMAX reagent (Invitrogen) per the manufacturer's protocol.
MCF7 cells were grown in 6-well plates to 70-80% confluency. For experiments in which RNAi was used to knock down FOXO1 or GAPDH expression, the cells were first transfected as described above. Cells were treated with small molecules for 20 h followed by completion of an APO BrdU TUNEL assay (Molecular Probes) per the manufacturer's protocol. Flow cytometry was performed using a BD LSRII instrument (BD Biosciences). At least 10,000 events were used for analysis.

miR-183 = assay: qRT-PCR of mature miRNA in MCF7 cells; assay type: cell-based, human; settings: 40 μM, 20 h
Protocol: as §3

miR-182 = assay: qRT-PCR of mature miRNA in MCF7 cells; assay type: cell-based, human; settings: 40 μM, 20 h
Protocol: as §3

[3] = test system: miR-96-FOXO1 luciferase model system; assay: Dual luciferase assay, miR-96 3′ UTR target; assay type: cell-based, human; settings: 40 μM, MCF7 cells
Protocol: MCF7 cells were grown in 96-well plates to ˜80% confluency in complete growth medium. The cells were transiently transfected with 100 ng of plasmid encoding either the miR-96 3′ UTR target or a mutated 3′ UTR target using Lipofectamine 2000 per the manufacturer's protocol. Approximately 5 h post transfection, the small molecule of interest was added in complete growth medium, and the cells were incubated for another 20 h. Luciferase activity was then measured using a Dual Glo Luciferase Assay System (Promega) per the manufacturer's protocol. The values reported are the average of at least three measurements, and errors are the corresponding standard deviations.

CCCN(CC(=O)N(CCC)CC(=O)N(CC(N)=O)Cc1cn(CCCNC(=O)CCCOc2c(C(C)(C)C)cc(-c3nc4cc(N5CCN(C)CC5)ccc4[nH]3)cc2C(C)(C)C)nn1)C(=O)CCCOc1cccc(-c2nc3ccc(-c4nc5ccc(N6CCN(C)CC6)cc5[nH]4)cc3[nH]2)c1 [BSH-2-H]
Kd ([1]; read-out: Dissociation constants, 5′UUU/3′AUA): 1170 ± 279 nM
Kd (5′CGAUU/3′GGUAUA RNA): 85 ± 11 nM
Kd (5′CGA/3′GGU RNA): 900 ± 200 nM
Kd (C1 (cassette RNA)): > 4000 nM
Kd (H Hairpin (DNA hairpin)): > 50000 nM
production of mature microRNA-96 (miR-96; 50 nM): significantly inhibited production of the mature microRNA-96
effect on mature miRNA-96 levels (miR-96; 1 μM, 0.5 μM and 0.05 μM, 24 hours): reduced mature miRNA-96 levels in a dose-dependent fashion
increase in FOXO1 protein expressed (FOXO1 protein): 2.5 fold
production of pri-microRNA-96 (pri-miR-96; 50 nM): boosting production of the pri-microRNA-96
increase of pri-miRNA 96 (pri-miR-96; 24 hours): about 2.3 fold
production of pre-microRNA-96 (pre-miR-96): inhibiting production of the pre-microRNA-96
effect on apoptosis in healthy breast cells [2]: no effect on apoptosis

CN1CCN(c2ccc3nc(-c4ccc5nc(-c6cccc(OCCCC(=O)NCCCN=[N+]=[N-])c6)[nH]c5c4)[nH]c3c2)CC1 [Compound 2]
binding affinity for the miR-96 precursor [1]: lack of binding affinity
reduction of formation of miR-210 (miR-210): 60%
induction of apoptosis (MCF7 cells): do not induce apoptosis
effect on miR-96 expression (miR-96; 40 μM, 20 h): do not affect
effect on miR-183 expression (miR-183): do not affect
effect on miR-182 expression (miR-182): do not affect
effect on luciferase expression [3]: no effect

C#CCCCC(=O)NCC1O[C@H](O[C@@H]2C(N)C[C@@H](N)C(O[C@@H]3OC(CO)[C@H](O)C(N)C3O)[C@H]2O)C(O)[C@@H](O)[C@@H]1O (some centres unmarked) [Compound 3]
effect on miR-96 expression (miR-96; 200 μM): a less, but significant, effect

CN1CCN(c2ccc3nc(-c4ccc(OCCCC(=O)NCCCN=[N+]=[N-])cc4)[nH]c3c2)CC1 [Compound 5]
binding affinity for the miR-96 precursor [1]: lack of binding affinity
induction of apoptosis (MCF7 cells): do not induce apoptosis
effect on miR-96 expression (miR-96; 40 μM, 20 h): do not affect
effect on miR-183 expression (miR-183): do not affect
effect on miR-182 expression (miR-182): do not affect
effect on luciferase expression [3]: no effect
